Where “and” joins values, the source holds several entries; their conditions need not be identical. Equal entries are not always repeated. Where two headings read alike, the source gives them in different places. Non-standard residues stand in square brackets, D forms with d. Residues, ends and D or L forms follow the SMILES beside them. No end group written: not given here. Nva = CCC[C@H](N)C(=O)O

For one series, the system named is HepG2 cells. Put plainly: PA induced lipid accumulation, Oil Red O staining. The following applies: HepG2, 0.25 mM PA + 200 μM peptide, 24 h; in words. The series is classed as cell-based, human. The method, then:
Hepatoma carcinoma cell line HepG2 and human hepatic activated stellate cell line LX2 used in this study were purchased from Type Culture Collection of the Chinese Academy of Sciences (Shanghai, China). Cells were cultured in Dulbecco’s modified Eagle’s medium (DMEM) with 10% fetal bovine serum (FBS), supplemented with 1% penicillin–streptomycin (ThermoFisher Scientific, USA) at 37 °C in a humidified atmosphere of 5% CO2. In PA (Sigma, USA) induced lipid accumulation cell model, HepG2 cells were seeded into a 6-well plate at 5E5 cells per well. 0.25 mM PA and/or 200 μM candidate peptides were co-incubated with cells for 24 h. Then Oil Red O staining was performed to evaluate the accumulation of lipid droplets. BSA (Sigma, USA) was used in this experiment as the negative control. For LX2 cells, 2E5 cells were seeded, then the adherent cells were exposed to 200 μM candidate peptides for another 48 h. Next, the cell protein was obtained and western blotting was performed. Candidate peptides were diluted in DMEM in a stock concentration of 1 M.

Series [1] relates to CCl4 induced liver fibrosis mice. The experiment in a line: CCl4 induced liver fibrosis mice: liver appearance, body weight, HE, Sirius red, IHC (αSMA, COL1α1, CD68). The series is classed as in vivo, mouse. The note with it: CCl4 induced liver fibrosis mice; administration dosages of 0.5 mg kg−1 and 2 mg kg−1; in words. The method, then: Male mice liver fibrosis was induced by intraperitoneal injection of 20% CCl4 (Sigma, USA) diluted in corn oil (Aladdin, China) every 3 days for 6 weeks (n = 6; 5 ml kg^−1 body weight). Mice injected with equivalent volume of corn oil serves as control group (n = 6). Liver fibrosis mice treated with JT003 for 3 weeks were used to evaluated the pharmacological effects (n = 6; 500 μg kg^−1; daily intraperitoneal injection).
The levels of TG and HYP in liver tissue were detected with certain commercial assay kit (Nanjing Jiancheng Bioengineering Institute, China). Formalin-fixed liver tissues were embedded in paraffin, sectioned into 5 μm slices. After deparaffinization and rehydration of the section slices, they were stained with Haematoxylin and Eosin or Periodic Acid-Schiff. For the detection of liver collagen content, Sirius Red staining for collagen was performed. OCT-embedded frozen liver tissues were sectioned into 12 μm slices, and Oil Red O staining was performed. The cryostat-cut slices were stained with freshly prepared Oil Red O working solution for 7 min Two independent experimenters who were blinded to the treatment evaluated the staining slides and analyzed the score for steatosis, glucogen accumulation and collagen proliferation area.
Paraffin-embedded liver slices were deparaffinized and rehydrated, antigen retrieval was performed under the high pressure and temperature in 0.01 M sodium citrate buffer (pH = 6.0). To quench the endogenous peroxidase activity, the slices were then incubated with 1% hydrogen peroxide in methanol for 10 min in room temperature. Then slices were incubated with corresponding primary antibodies. After washing, HRP-conjugated secondary antibodies specific to the species of the primary antibodies were used. After the section were developed with DAB, hematoxylin staining was performed for cell counting.

A short description of series [2]: Pharmacokinetic assay in SD rats. The series is classed as in vivo, rat. The method, then: Male SpragueDawley (SD) rats were randomly divided into two groups (n = 3 per group) and received a single intravenous dose of JT003 (0.5 mg/kg) or ADP355 (1.0 mg kg^−1) respectively. Blood samples were collected at 5, 15, 30, 45 min and 1, 2, 3 h following the injection, and then were immediately centrifuged (4000g, 10 min, 4 °C) to obtain plasma samples. Plasma concentrations of the two peptides were measured by LC-MS/MS (ThermoFisher Scientific, USA). Pharmacokinetic parameters of JT003 and ADP355 were calculated using non-compartmental analysis in Phoenix WinNonlin (version 8.0, Pharsight, USA). The concentration values less than the LLOQ were set to zero for the analysis.

For series [3], the system named is AdipoR1 and AdipoR2 on HepG2 and LX2 cells. Put plainly: Cell confocal imaging, receptor binding of FITC labeled peptide (with AdipoR siRNA). The note with it: 37 °C, 2 or 4 h, AdipoR1/AdipoR2 siRNA as control, in words. Details: species or system human. The method, then:
For in vitro receptor binding assay, 4E4 HepG2 cells or 2E4 LX2 cells were seeded on 35 mm glass bottom dish with 150 μL complete medium. Then cells were incubated with FITC labeled peptide for 4 h. The nuclei were stained with Hoechst 33342 (ThermoFisher, Scientific, USA). After washing with PBS, cells were visualized in a laser confocal microscope (Olympus FV3000, Japan). Cells with suppressed AdipoR1 and AdipoR2 expression with each specific siRNA were used as negative control.
AdipoR1 and AdipoR2 siRNA as well as mock siRNA were chemically synthesized (GenePharma, China) and transfected into 60–70% confluent HepG2 and LX2 cells using Lipofectamine 3000 (ThermoFisher Scientific, USA). Dilution of siRNA and Lipofectamine 3000 reagents as well as the transfection of cells were performed following the manufacturer’s protocol. For HepG2 cell model, 5E5 cells were plated in 6-well plates and transfected with 5 μL of 20 μM stock siRNA. At 48 h following transfection, the cells were processed for 0.25 mM PA and/or 200 μM JT003 treated for another 24 h. BSA was used as the negative control. For LX2 cell model, 2E5 cells were plated in 6-well plates and transfected with 5 μL of 20 μM stock siRNA. At 48 h following transfection, the cells were processed for JT003 or PBS treated for another 48 h. Next, cells were harvested for either western blot or qPCR assay.

Series [4] can be described thus: Serum stability assay (RP-HPLC). The series is classed as in vitro ADME. The note with it: for Fraction of peptide remaining, Supplementary Figure 5: mouse serum, time 0 (unit not given); for remaining at 0.5 h, 5 mM: time 0.5 (unit inferred); for remaining at 1 h, 5 mM: time 1 (unit inferred); for remaining at 1.5 h, 5 mM: time 1.5 (unit inferred); for remaining at 2 h, 5 mM: time 2 (unit inferred); for remaining at 2.5 h, 5 mM: time 2.5 (unit inferred); for remaining at 4 h, 5 mM: time 4 (unit inferred); for remaining at 6 h, 5 mM: time 6 (unit inferred). The method, then: The stability of candidate peptides was investigated following procedure. […] Ice-cold acetonitrile was added to terminate the reaction. Vortex and stand for 1 min, deionized water with 1% TFA was added to the mixture to further terminate the reaction. Mixtures were then centrifuged (13,000g, 10 min) to obtain the supernatant. RP-HPLC-MS was applied to analysis the content of candidate peptides. The serum stability of candidate peptides was represented as the retention rate of each peptide.

[5] abbreviates: Sprague-Dawley, rat, male SD rats, single iv dose: JT003 0.5 mg/kg, ADP355 1.0 mg/kg, plasma, LC-MS/MS, non-compartmental, Mean ± SD, n = 3-6.
[6] abbreviates: mouse, replicate 1, read-out: Fraction of peptide remaining, Supplementary Figure 5.
Setting [7] is: mouse, replicate 2, read-out: Fraction of peptide remaining, Supplementary Figure 5.
Setting [8] is: mouse, replicate 3, read-out: Fraction of peptide remaining, Supplementary Figure 5.

By half-life is commonly meant the time in which the quantity being followed falls by half. Lower therefore signals rapid decline. The term AUC(0-inf) denotes the area under the concentration-time curve extrapolated to infinity. The AUC(0-t) is exposure summed from dosing to a finite time, without extrapolation to infinity. Low values mean less exposure, high ones more exposure. As usually defined, the MRT is a mean duration of stay, worked out from the concentration-time curve. For orientation: clearance means the volume of plasma or blood freed of the substance per unit of time. `CCC[C@H](NC(=O)[C@@H]1CCCN1C(=O)[C@@H](NC(=O)[C@H](N)CC(N)=O)[C@@H](C)CC)C(=O)N[C@@H](CC(C)C)C(=O)N[C@@H](Cc1ccc(O)cc1)C(=O)N[C@H](CO)C(=O)N[C@@H](Cc1ccccc1)C(=O)N[C@@H](C)C(=O)N[C@H](CO)C(N)=O` [ADP355] (H-[dN]IP[Nva]LY[dS]FA[dS]-NH2; N-terminus and C-terminus assumed): the “lipid droplets accumulation caused by PA (Oil Red O)” value with HepG2 cells is on record as “could be reduced”. Further, the “inflammation, necrosis and fibrosis area (HE and sirius red staining)” value in series [1] is on record as “not notably raised”. Moreover, the “time for which plasma concentrations were measurable” value in series [2] (SD rats, after intravenous administration, ADP355 1.0 mg/kg) is 45 min. This compound returned a half-life in series [2] (SD rats, iv, authors' response to reviewers) of 6 min. In series [2] (setting [5]), this compound gave an AUC(0-inf) of 134 ± 19.9 ng·h/mL, an AUC(0-t) of 134 ± 19.9 ng·h/mL, an MRT of 5.4 ± 0.6 min and a clearance of 126 mL/min/kg. Further, in series [2] (Sprague-Dawley, rat, male SD rats, single iv dose: JT003 0.5 mg/kg, ADP355 1.0 mg/kg, plasma, LC-MS/MS, non-compartmental, Mean ± SD, n = 3-6, read-out: V), the Vd was 1.06 ± 0.21 L/kg. Besides, the t1/2 in series [2] (male SD rats, single iv dose: JT003 0.5 mg/kg, ADP355 1.0 mg/kg, plasma, LC-MS/MS, non-compartmental, Mean ± SD, n = 3-6 (n = 3 per group)) was 6 ± 0.6 min and 6 min.
In the case of `CCC[C@H](NC(=O)[C@@H]1CCCN1)C(=O)N[C@@H](CC(C)C)C(=O)N[C@@H](Cc1ccc(O)cc1)C(=O)N[C@@H](CO)C(=O)N[C@@H](Cc1ccccc1)C(=O)N[C@@H](CC(=O)O)C(N)=O` [JT006] (H-P[Nva]LYSFD-NH2), in the series on HepG2 cells, the “lipid droplets accumulation caused by PA (Oil Red O)” value is given as “little prevention of palmitic acid induced lipid droplets”. Further, the “binding to AdipoRs on the cell membrane (confocal, FITC)” value in series [3] was “could not bind to the AdipoRs specifically”.
A word on the fraction remaining: it is what is left of the initial amount, in per cent. With “PGLYYFD-NH2 (C-terminus assumed) [Pep70]”, the “Fraction of peptide remaining, Supplementary Figure 5” value (from here on “Fraction of peptide remaining”) in series [4] (replicate 1) worked out at 0.9901. Further, the “Fraction of peptide remaining” value in series [4] (replicate 2) was 1.005. Besides, the “Fraction of peptide remaining” value in series [4] (replicate 3) is 0.9939. In addition, in series [4] (setting [6]), the fraction remaining at 0.5 h, 5 mM came out at 96.7%; the amount remaining at 1 h, 5 mM came to 82.5%; the fraction remaining at 1.5 h, 5 mM turned out to be 80.8%; the amount remaining at 2 h, 5 mM is 50.5%. For the same compound, in series [4] (setting [6]), the share remaining at 2.5 h, 5 mM came to 26.1%; the share remaining at 4 h, 5 mM was found to be 23.9%; the fraction remaining at 6 h, 5 mM is 2.28%. In series [4] (setting [7]), the amount remaining at 0.5 h, 5 mM was 98.6%; the amount remaining at 1 h, 5 mM stood at 84%; the share remaining at 1.5 h, 5 mM was found to be 82.6%; the amount remaining at 2 h, 5 mM was 53.4%. Moreover, in series [4] (setting [7]), the share remaining at 2.5 h, 5 mM stood at 27.2%; the fraction remaining at 4 h, 5 mM amounted to 24.2%; the amount remaining at 6 h, 5 mM turned out to be 2.13%. In addition, in series [4] (setting [8]), the fraction remaining at 0.5 h, 5 mM was 94.9%; the share remaining at 1 h, 5 mM is 83.1%; the amount remaining at 1.5 h, 5 mM was 83.7%; the fraction remaining at 2 h, 5 mM is 47.2%. In series [4] (setting [8]), the share remaining at 2.5 h, 5 mM was 27.2%; the amount remaining at 4 h, 5 mM turned out to be 23.5%; the share remaining at 6 h, 5 mM stood at 2.33%. Moreover, the amount remaining at 3 h, 5 mM in series [4] (mouse, time 3 (unit inferred), replicate 1, read-out: Fraction of peptide remaining, Supplementary Figure 5) worked out at 29.9%. Also, in series [4] (mouse, time 3.5 (unit inferred), replicate 1, read-out: Fraction of peptide remaining, Supplementary Figure 5), the share remaining at 3.5 h, 5 mM amounted to 29.3%.
